# According to ChEMBL document CHEMBL6109129, “Discovery of Conformationally Constrained Dihydro Benzo-Indole Derivatives as Metallo-β-Lactamase Inhibitors to Tackle Multidrug-Resistant Bacterial Infections” (J Med Chem, 2025):
# Calls of active or inactive are those of the source. No cut-off for these calls is given here.
# How the values were obtained:
# Klebsiella pneumoniae [1] = assay: Synergistic antibacterial activity against carbapenem-resistant Klebsiella pneumoniae BAA-2473 assessed as reduction in microbial growth at 16 ug/ml measured after 16 to 18 hrs in presence of imipenem by microbial dilution method; type: functional; conditions: dose 16 µg/ml, time 16-18 hrs
# Klebsiella pneumoniae [2] = assay: Synergistic antibacterial activity against carbapenem-resistant Klebsiella pneumoniae 565345 assessed as reduction in microbial growth at 4 ug/ml measured after 16 to 18 hrs in presence of meropenem by microbial dilution method; type: functional; conditions: dose 4 µg/ml, time 16-18 hrs
# Escherichia coli [3] = assay: Synergistic antibacterial activity against carbapenem-resistant Escherichia coli BAA-2471 assessed as reduction in microbial growth at 16 ug/ml measured after 16 to 18 hrs in presence of meropenem by microbial dilution method; type: functional; conditions: dose 16 µg/ml, time 16-18 hrs
# Escherichia coli [4] = assay: Synergistic antibacterial activity against carbapenem-resistant Escherichia coli BAA-2469 assessed as reduction in microbial growth at 8 ug/ml measured after 16 to 18 hrs in presence of imipenem by microbial dilution method; type: functional; conditions: dose 8 µg/ml, time 16-18 hrs
# Enterobacter cloacae [5] = assay: Synergistic antibacterial activity against carbapenem-resistant Enterobacter cloacae BAA-2468 assessed as reduction in microbial growth at 16 ug/ml measured after 16 to 18 hrs in presence of imipenem by microbial dilution method; type: functional; conditions: dose 16 µg/ml, time 16-18 hrs
# Escherichia coli [6] = assay: Synergistic antibacterial activity against carbapenem-resistant Escherichia coli 541588 assessed as reduction in microbial growth at 4 ug/ml measured after 16 to 18 hrs in presence of imipenem by microbial dilution method; type: functional; conditions: dose 4 µg/ml, time 16-18 hrs
# Escherichia coli [7] = assay: Synergistic antibacterial activity against carbapenem-resistant Escherichia coli BAA-2471 assessed as reduction in microbial growth at 16 ug/ml measured after 16 to 18 hrs in presence of imipenem by microbial dilution method; type: functional; conditions: dose 16 µg/ml, time 16-18 hrs
# [8] = Metabolic stability in human liver microsomes assessed as intrinsic clearance at 1 uM preincubated for 5 mins followed by NADPH addition and measured up to 60 mins by LC-MS/MS analysis; type: ADME, Microsome; conditions: time < 65 min, read-out: CLH
# Klebsiella pneumoniae [9] = assay: Synergistic antibacterial activity against carbapenem-resistant Klebsiella pneumoniae BAA-2473 assessed as reduction in microbial growth at 8 ug/ml measured after 16 to 18 hrs in presence of imipenem by microbial dilution method; type: functional; conditions: dose 8 µg/ml, time 16-18 hrs
# Escherichia coli [10] = assay: Synergistic antibacterial activity against carbapenem-resistant Escherichia coli 567975 assessed as reduction in microbial growth at 16 ug/ml measured after 16 to 18 hrs in presence of imipenem by microbial dilution method; type: functional; conditions: dose 16 µg/ml, time 16-18 hrs
# Escherichia coli [11] = assay: Synergistic antibacterial activity against carbapenem-resistant Escherichia coli BAA-2469 assessed as reduction in microbial growth at 16 ug/ml measured after 16 to 18 hrs in presence of imipenem by microbial dilution method; type: functional; conditions: dose 16 µg/ml, time 16-18 hrs
# Escherichia coli [12] = assay: Synergistic antibacterial activity against carbapenem-resistant Escherichia coli BAA-2469 assessed as reduction in microbial growth at 0.5 ug/ml measured after 16 to 18 hrs in presence of meropenem by microbial dilution method; type: functional; conditions: dose 0.5 µg/ml, time 16-18 hrs
# Klebsiella pneumoniae [13] = assay: Synergistic antibacterial activity against Klebsiella pneumoniae ATCC BAA 2146 expressing NDM-1 measured after 16 to 18 hrs in presence of imipenem by microbial dilution method; type: functional, organism-based; conditions: time 16-18 hrs
# Enterobacter cloacae [14] = assay: Synergistic antibacterial activity against carbapenem-resistant Enterobacter cloacae BAA-2468 assessed as reduction in microbial growth at 0.5 ug/ml measured after 16 to 18 hrs in presence of imipenem by microbial dilution method; type: functional; conditions: dose 0.5 µg/ml, time 16-18 hrs
# Escherichia coli [15] = assay: Synergistic antibacterial activity against carbapenem-resistant Escherichia coli 571307 assessed as reduction in microbial growth at 16 ug/ml measured after 16 to 18 hrs in presence of imipenem by microbial dilution method; type: functional; conditions: dose 16 µg/ml, time 16-18 hrs
# [16] = system: Klebsiella pneumoniae subsp. pneumoniae; assay: Synergistic antibacterial activity against carbapenem-resistant Klebsiella pneumoniae subsp. pneumoniae BAA-2472 assessed as reduction in microbial growth at 0.5 ug/ml measured after 16 to 18 hrs in presence of meropenem by microbial dilution method; type: functional; conditions: dose 0.5 µg/ml, time 16-18 hrs
# Klebsiella pneumoniae [17] = assay: Synergistic antibacterial activity against carbapenem-resistant Klebsiella pneumoniae 571278 assessed as reduction in microbial growth at 16 ug/ml measured after 16 to 18 hrs in presence of imipenem by microbial dilution method; type: functional; conditions: dose 16 µg/ml, time 16-18 hrs
# Enterobacter cloacae [18] = assay: Synergistic antibacterial activity against carbapenem-resistant Enterobacter cloacae BAA-2468 assessed as reduction in microbial growth at 16 ug/ml measured after 16 to 18 hrs in presence of meropenem by microbial dilution method; type: functional; conditions: dose 16 µg/ml, time 16-18 hrs
# Klebsiella pneumoniae [19] = assay: Synergistic antibacterial activity against carbapenem-resistant Klebsiella pneumoniae BAA-2473 assessed as reduction in microbial growth at 8 ug/ml measured after 16 to 18 hrs in presence of meropenem by microbial dilution method; type: functional; conditions: dose 8 µg/ml, time 16-18 hrs
# [20] = system: Klebsiella pneumoniae subsp. pneumoniae; assay: Synergistic antibacterial activity against carbapenem-resistant Klebsiella pneumoniae subsp. pneumoniae BAA-2470 assessed as reduction in microbial growth at 8 ug/ml measured after 16 to 18 hrs in presence of meropenem by microbial dilution method; type: functional; conditions: dose 8 µg/ml, time 16-18 hrs
# Escherichia coli [21] = assay: Synergistic antibacterial activity against carbapenem-resistant Escherichia coli 571307 assessed as reduction in microbial growth at 4 ug/ml measured after 16 to 18 hrs in presence of meropenem by microbial dilution method; type: functional; conditions: dose 4 µg/ml, time 16-18 hrs
# [22] = biological target: Metallo-beta-lactamase type 2 (Bacteria) (UniProt C7C422); assay: Induction of thermal stabilization of NDM-1 (unknown origin) assessed as melting temperature at 50 uM by differential scanning fluorimetry analysis
# [23] = biological target: Metallo-beta-lactamase type 2 (Bacteria) (UniProt C7C422); assay: Induction of thermal stabilization of NDM-1 (unknown origin) assessed as melting temperature at 6.25 uM by differential scanning fluorimetry analysis
# Escherichia coli [24] = assay: Synergistic antibacterial activity against carbapenem-resistant Escherichia coli 541588 assessed as reduction in microbial growth at 4 ug/ml measured after 16 to 18 hrs in presence of meropenem by microbial dilution method; type: functional; conditions: dose 4 µg/ml, time 16-18 hrs
# Metallo-beta-lactamase type 2 (Bacteria), sequence (C7C422 whole entry): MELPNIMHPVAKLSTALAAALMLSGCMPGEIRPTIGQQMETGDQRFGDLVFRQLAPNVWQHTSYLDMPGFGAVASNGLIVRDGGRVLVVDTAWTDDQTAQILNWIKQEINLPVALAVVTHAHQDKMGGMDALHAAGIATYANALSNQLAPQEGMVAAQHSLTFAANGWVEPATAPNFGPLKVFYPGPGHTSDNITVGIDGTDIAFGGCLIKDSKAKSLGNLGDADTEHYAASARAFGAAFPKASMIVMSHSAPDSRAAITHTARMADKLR
structure (smiles),measurement,setting,value
COc1ccc(Cl)cc1-c1c(C(=O)O)[nH]c2c1CCc1ccccc1-2,MIC,Klebsiella pneumoniae [1],8 µg/mL
same,MIC,Klebsiella pneumoniae [2],4 µg/mL
same,MIC,Escherichia coli [3],16 µg/mL
same,MIC,Escherichia coli [4],8 µg/mL
same,MIC,Enterobacter cloacae [5],32 µg/mL
same,MIC,Escherichia coli [6],1 µg/mL
same,MIC,Escherichia coli [7],8 µg/mL
same,microsomal CLint at 1 µM,[8],9.8 µL/min/mg
same,MIC,Klebsiella pneumoniae [9],16 µg/mL
same,MIC,Escherichia coli [10],1 µg/mL
same,MIC,Escherichia coli [11],4 µg/mL
same,MIC,Escherichia coli [12],16 µg/mL
same,Activity,Klebsiella pneumoniae [13],Active
same,MIC,Enterobacter cloacae [14],> 64 µg/mL
same,MIC,Escherichia coli [15],2 µg/mL
same,MIC,[16],> 64 µg/mL
same,MIC,Klebsiella pneumoniae [17],4 µg/mL
same,MIC,Enterobacter cloacae [18],4 µg/mL
same,MIC,Klebsiella pneumoniae [19],16 µg/mL
same,MIC,[20],8 µg/mL
same,MIC,Escherichia coli [21],2 µg/mL
same,Tm,[22],20 °C
same,ΔTm,[23],17 °C
same,MIC,Escherichia coli [24],8 µg/mL
